What was measured:
[1] = Soil tests; settings: 5 g dried soil, 20 mL host in dichloromethane, no pre-treatment or pre-concentration
Procedure: Soil was taken front the top 15 cm of the garden bed outside the Chemistry Building at the University of Tasmania and dried in the oven at 40° C. for approximately 60 hours. This soil was then spiked with 10 ppm PFOA: Two 50 g dried soil samples were transferred into two separate 1 L polypropylene containers. One sample was combined with a dichloromethane-PFOA solution (200 mL of 6×10^−6 M PFOA in DCM) and the other was combined with only dichloromethane (200 mL). The solutions were left to evaporate. 5 g of the resulting samples was transferred to high density polyethylene tubes.
Combinations of sensor molecule (9) in different organic solvents were added to spiked and control samples, and the results were compared. Water was also added to see if a biphasic system was beneficial for extraction from soil. • A=20 mL dichloromethane+medium chain sensor (9) • B=10 mL of water-->20 mL dichloromethane+medium chain sensor (9) • C=20 mL ethyl acetate+medium chain sensor (9) • D=20 mL toluene+medium chain sensor (9)
Dried soil samples (5 g) were also combined with 20 mL of host (9) in dichloromethane and shaken to show a colour change observable in the solvent.

[2] = PFCA guest response screening (RGB analysis, UV-Vis)
Procedure: A Puluz® 20 cm portable light tent with moderate and dispersed white LED lighting was used to photograph samples using an iPhone 6S plus camera on a fixed tripod. The automatic flash settings were disabled so there was no reflective interference on the sample vials. Samples that were being directly compared were photographed together to ensure lighting conditions and settings were consistent. The photographs were analysed using ImageJ software according to the procedure of Gallagher, 2014b. Multiple RGB values were chosen from areas of each sample at random to provide an “average” RGB value (Menesatti et al., 2012; Gallagher, 2014a; Phuangsaijai et al., 2021). Those RGB values were used to produce an artificial colour tile for visual comparison, or parameterized for modelling.
To quantify a colour difference, RGB values were transformed within the CIELab colour space. The difference, expressed as ΔE, was determined by measuring the relative distance between two colours. The numeric ΔE value can be used to predict how the two colours are perceived by a standard observer; a ΔE>2 is considered the minimum value to achieve a “just noticeable difference” (JND) (Table 1), which is the smallest difference required for an untrained observer to be able to determine two colours as being different (Castillo et al., 2021).
Experiments were performed at concentrations that could be monitored by the naked eye for practical sensing of PFAS in the field. Complexes of hosts (9), (11) and (12) were formed with the nine different perfluorocarboxylic acids (PFCAs) shown in Table 2 above and the colours of each host−PFCA complex were photographed in a lightbox and analysed using ImageJ software RGB analysis. Pixels of the solution were chosen at random to provide an RGB value. Multiple RGB values were recorded for each host−PFCA solution, and an average colour can be produced. From those values an RGB parameter was used to give a response value for modelling (Tahir et al., 2016).
After preliminary screenings, UV-Vis spectra were collected before and after the addition of 1 molar equivalent of each PFCA for each host, and the degree of complexation was noted by shifts in the Soret bands and formation of a peak at ca. 650 nm. To eliminate dilution effects, PFCA guest solutions were prepared in the equivalent concentration of host. If there was a notable host−guest interaction for a particular PFCA, the host−guest binding was investigated with more rigorous UV-Vis experiments, binding studies, and further colour analyses. Throughout these investigations, PFOA was considered the “average” PFCA both because of its position in the range of PFCA sizes and because its prevalence is often an indication of broader PFAS contamination. In any experiment where binding was further investigated for a particular PFCA, it was typically replicated with PFOA for comparison.

[3] = RGB response, low PFCA concentration
Text: RGB response curves were established by combining solutions of host (12) (5.01×10^−6 M) with solutions of PFOA (0-16 ppm, 3.86×10^−5 M) in dichloromethane. […] Thus, when establishing a calibration curve, the relative proportion of free host to host−PFCA complex limiting the variability of colour response must be considered for the application.
In the “low” PFCA concentration experiment, the RGB response values had the greatest rate of change from 0-40 ppb PFOA and appeared to level out between 40-80 ppb PFOA. In that instance, the regression was fit for a host : guest ratio of 0-0.8. To probe the sensor's response to a mixture of PFCAs, samples containing combinations of PFHxA, PFHpA, and PFDA in dichloromethane (7-28 ppb) were prepared and the RGB responses were collected. The PFCA concentrations for the samples were predicted using the PFOA regression (y=0.0591 ln(x)+0.037, R^2=0.9771).
The RGB response values can differentiate between 0 and 1 ppb PFOA numerically on the regression, but to determine the visual detectability, the ΔE values can be calculated. […] Samples from 0-5 ppb PFOA gave a colour change that could be determined as different from the starting host solution (ΔE=4-8) (Table 11). […] Thus, a conservative visual limit of detection of 10 ppb PFCA may be considered for an untrained observer making threshold analysis.

[4] = host + one equivalent PFBA in dichloromethane
[5] = host + one equivalent PFDA in dichloromethane
[6] = host + one equivalent PFDoDA in dichloromethane
[7] = host + one equivalent PFHpA in dichloromethane
[8] = host + one equivalent PFHxA in dichloromethane
[9] = host + one equivalent PFNA in dichloromethane
[10] = host + one equivalent PFOA in dichloromethane
[11] = host + one equivalent PFPeA in dichloromethane
[12] = host + one equivalent PFUnDA in dichloromethane

Row | Structure (SMILES) | Absorbance @ 650 nm [2, 4] | Absorbance @ 650 nm [2, 5] | Absorbance @ 650 nm [2, 6] | Absorbance @ 650 nm [2, 7] | Absorbance @ 650 nm [2, 8] | Absorbance @ 650 nm [2, 9] | Absorbance @ 650 nm [2, 10] | Absorbance @ 650 nm [2, 11] | Absorbance @ 650 nm [2, 12] | ΔEHost-PFCA ([2]; host vs host + PFBA) | ΔEHost-PFCA ([2]; host vs host + PFDA) | ΔEHost-PFCA ([2]; host vs host + PFDoDA) | ΔEHost-PFCA ([2]; host vs host + PFHpA) | ΔEHost-PFCA ([2]; host vs host + PFHxA) | ΔEHost-PFCA ([2]; host vs host + PFNA) | ΔEHost-PFCA ([2]; host vs host + PFOA) | ΔEHost-PFCA ([2]; host vs host + PFPeA) | ΔEHost-PFCA ([2]; host vs host + PFUnDA) | further results
1 | O=C(Nc1ccccc1-c1c2nc(c(-c3ccccc3NC(=O)C(F)(F)C(F)(F)C(F)(F)C(F)(F)C(F)(F)C(F)(F)C(F)(F)F)c3ccc([nH]3)c(-c3ccccc3NC(=O)C(F)(F)C(F)(F)C(F)(F)C(F)(F)C(F)(F)C(F)(F)C(F)(F)F)c3nc(c(-c4ccccc4NC(=O)C(F)(F)C(F)(F)C(F)(F)C(F)(F)C(F)(F)C(F)(F)C(F)(F)F)c4ccc1[nH]4)C=C3)C=C2)C(F)(F)C(F)(F)C(F)(F)C(F)(F)C(F)(F)C(F)(F)C(F)(F)F [host (9), α,α,α,α-5,10,15,20-tetrakis(2-(pentadecafluorooctanoylamino)phenyl)porphyrin] | 0.04939 | 0.03023 | 0.01719 | 0.04879 | 0.04964 | 0.02986 | 0.02885 | 0.04302 | 0.02958 | 46.1 | 39.6 | 22.4 | 47.2 | 47.3 | 38.5 | 39.3 | 46.2 | 38.5 | colour change with soil sample [1]: discernible by the naked eye
2 | O=C(Nc1ccccc1-c1c2nc(c(-c3ccccc3NC(=O)C(F)(F)C(F)(F)C(F)(F)C(F)(F)C(F)(F)C(F)(F)C(F)(F)C(F)(F)C(F)(F)C(F)(F)C(F)(F)F)c3ccc([nH]3)c(-c3ccccc3NC(=O)C(F)(F)C(F)(F)C(F)(F)C(F)(F)C(F)(F)C(F)(F)C(F)(F)C(F)(F)C(F)(F)C(F)(F)C(F)(F)F)c3nc(c(-c4ccccc4NC(=O)C(F)(F)C(F)(F)C(F)(F)C(F)(F)C(F)(F)C(F)(F)C(F)(F)C(F)(F)C(F)(F)C(F)(F)C(F)(F)F)c4ccc1[nH]4)C=C3)C=C2)C(F)(F)C(F)(F)C(F)(F)C(F)(F)C(F)(F)C(F)(F)C(F)(F)C(F)(F)C(F)(F)C(F)(F)C(F)(F)F [host (12), α,α,α,α-5,10,15,20-tetrakis(2-(tricosafluorododecanoylamino)phenyl) porphyrin] | 0.0906 | 0.0918 | 0.0769 | 0.0737 | 0.0728 | 0.0953 | 0.0913 | 0.0692 | 0.0808 | 21.1 | 22.3 | 17.9 | 16.3 | 17.5 | 22.3 | 21.8 | 9.8 | 18.8 | ΔE vs host solution ([3]; 1.3 ppb PFOA): ≥ 2; conservative visual limit of detection ([3]; PFCA, untrained observer, threshold analysis): 10 ppb; ΔE (Host − PFCA) ([3]; PFOA 1 ppb): 4; ΔE (Host − PFCA) ([3]; PFOA 3 ppb): 6; ΔE (Host − PFCA) ([3]; PFOA 5 ppb): 8; ΔE (Host − PFCA) ([3]; PFOA 10 ppb): 11; ΔE (Host − PFCA) ([3]; PFOA 21 ppb): 12; ΔE (Host − PFCA) ([3]; PFOA 41 ppb): 15; ΔE (Host − PFCA) ([3]; PFOA 83 ppb): 17; ΔE vs starting host solution ([3]; samples from 0-5 ppb PFOA): 4-8
